Experiments:
α2 -adrenoceptor = assay: Xylazine-induced loss of righting reflex in rats; format: in vivo; details: one hour before xylazine 15 mg/kg i.v., male rats, lowest tested dose at which at least 66% of animals showed no loss of righting reflex
Procedure: This test is based upon the fact that centrally acting α2 -adrenoceptor antagonists reverse the loss of righting reflex induced by an intravenous injection of the α2 agonist xylazine. One hour before injection of xylazine (15 mg/kg, i.v.), male rats (200-250 g) were pretreated with a test compound (er os (p.o.) or subcutaneously (s.c.)) or solvent.

[1] = target: T1, cloned human α2C receptors (Homo sapiens, UniProt P18825); assay: In vitro binding affinity for α2C receptors (3H-rauwolscine competition binding); details: at a test concentration of 10^-8 M or less; CHO cell expressing cloned human α2C receptors
T1 construct: expressed in transfected cells; host or cells: CHO cells
T1 sequence (P18825 1-462): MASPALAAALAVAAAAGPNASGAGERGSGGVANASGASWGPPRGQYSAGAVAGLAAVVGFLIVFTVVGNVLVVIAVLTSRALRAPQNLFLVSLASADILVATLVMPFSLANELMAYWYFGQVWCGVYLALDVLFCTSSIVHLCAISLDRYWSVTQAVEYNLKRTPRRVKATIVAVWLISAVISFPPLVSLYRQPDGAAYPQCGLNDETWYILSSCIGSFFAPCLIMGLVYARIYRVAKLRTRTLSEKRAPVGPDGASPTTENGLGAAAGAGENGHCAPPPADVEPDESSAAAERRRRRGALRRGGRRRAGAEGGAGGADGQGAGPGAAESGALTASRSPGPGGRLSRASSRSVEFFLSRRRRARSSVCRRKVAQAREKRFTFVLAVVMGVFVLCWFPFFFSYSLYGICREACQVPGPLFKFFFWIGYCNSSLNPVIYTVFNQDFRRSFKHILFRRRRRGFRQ

[2] = target: T2, cloned human α2A receptors (Homo sapiens, UniProt P08913); assay: In vitro binding affinity for α2A receptors (3H-rauwolscine competition binding); details: at a test concentration of 10^-8 M or less; CHO cell expressing cloned human α2A receptors
T2 sequence (P08913 1-465): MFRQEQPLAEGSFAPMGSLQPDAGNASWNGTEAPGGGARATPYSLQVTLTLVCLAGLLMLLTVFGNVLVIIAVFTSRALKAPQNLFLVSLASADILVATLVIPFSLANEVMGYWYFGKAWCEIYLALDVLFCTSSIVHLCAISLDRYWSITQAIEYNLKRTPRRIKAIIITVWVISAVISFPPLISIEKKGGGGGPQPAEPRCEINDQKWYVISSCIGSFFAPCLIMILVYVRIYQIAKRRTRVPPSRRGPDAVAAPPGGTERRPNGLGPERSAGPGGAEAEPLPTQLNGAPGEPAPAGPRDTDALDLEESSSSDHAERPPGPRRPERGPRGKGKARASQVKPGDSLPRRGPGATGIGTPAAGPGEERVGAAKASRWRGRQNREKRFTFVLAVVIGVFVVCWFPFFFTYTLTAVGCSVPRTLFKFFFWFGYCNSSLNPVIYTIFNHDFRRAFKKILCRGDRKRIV
Procedure: The interaction of the compounds of formula (I) with α2 receptors was assessed in in vitro radioligand binding experiments.
In general, a low concentration of a radioligand with a high binding affinity for a particular receptor is incubated with a sample of a tissue preparation enriched in a particular receptor or with a preparation of cells expressing cloned human receptors in a buffered medium. During the incubation, the radioligand binds to the receptor. When equilibrium of binding is reached, the receptor bound radioactivity is separated from the non-bound radioactivity, and the receptor bound activity is counted. The interaction of the test compounds with the receptor is assessed in competition binding experiments. Various concentrations of the test compound are added to the incubation mixture containing the receptor preparation and the radioligand. Binding of the radioligand will be inhibited by the test compound in proportion to its binding affinity and its concentration.
The radioligand used for α2A receptor binding is ^3 H-rauwolscine and the receptor preparation used is the Chinese Hamster Ovary (CHO) cell expressing cloned human α2A receptors.

| SMILES | LAD in mg/kg (lowest active dose for xylazine antagonism) (α2 -adrenoceptor; p.o.) | LAD in mg/kg (lowest active dose for xylazine antagonism) (α2 -adrenoceptor; s.c.) | inhibition at up to 0.01 µM [1] | inhibition [2] |
| --- | --- | --- | --- | --- |
| Cc1nc2n(c(=O)c1CCN1CCc3oc4ccccc4c3C1)CCCC2C (stereo not shown) [Compound 25] | 10.00 mg/kg | – | – | – |
| Cc1nc2n(c(=O)c1CCN1CCc3oc4ccccc4c3C1)CCCC2 [Compound 2] | 1.25 mg/kg | – | – | – |
| Cc1nc2ccc(Cl)cn2c(=O)c1CCN1CCc2oc3ccccc3c2C1 [Compound 32] | – | 0.04 mg/kg | – | – |
| Cc1ccc(C(=O)N2CCCC(CN3CCc4oc5ccccc5c4C3)C2)cc1 (stereo not shown) [Compound 57] | 10.00 mg/kg | – | – | – |
| CSc1nc(C)c(CCN2CCc3oc4ccccc4c3C2)c(=O)n1C [Compound 55] | 10.00 mg/kg | – | > 50% | > 50% |
| Cc1nc2scc(C)n2c(=O)c1CCN1CCc2oc3ccccc3c2C1 [Compound 5, 6-[[3,4-dihydrobenzofuro[3,2-c]pyridin-2(lH)-yl]ethyl]-3,7-dimethyl-5H-thiazolo-[3,2-a]pyrimidin-5-one] | – | 0.63 mg/kg | – | – |
| Cc1nc2ccccn2c(=O)c1CCCN1CCc2oc3ccccc3c2C1 [Compound 26] | – | 10.00 mg/kg | – | – |
| O=c1oc2ccccc2n1CCCN1CCc2oc3ccccc3c2C1 [Compound 60] | 10.00 mg/kg | – | – | > 50% |
| Cc1nc2n(c(=O)c1CCN1CCc3oc4ccc(F)cc4c3C1)CCCC2 [Compound 18] | – | 10.00 mg/kg | – | > 50% |
| Cc1nc2n(c(=O)c1CCN1CCc3oc4ccccc4c3C1)CCCC2C (stereo not shown) [Compound 13] | – | – | > 50% | – |
| Cc1ccn2c(=O)c(CCN3CCc4oc5ccccc5c4C3)c(C)nc2c1 [Compound 36] | – | 0.63 mg/kg | – | – |
| c1ccc2sc(NCCCCN3CCc4oc5ccccc5c4C3)nc2c1 [Compound 50] | – | 10.00 mg/kg | > 50% | – |
| Cc1nc2n(c(=O)c1CCN1CCc3oc4ccccc4c3C1)CCS2 [Compound 6] | – | 0.63 mg/kg | – | – |
| Cc1ccc2nc(C)c(CCN3CCc4oc5ccccc5c4C3)c(=O)n2c1 [Compound 34, 3-[2-[3,4-dihydrobenzofuro[3,2-c]pyridin-2(1H)-yl]ethyl]-2,7-dimethyl-4H-pyrido-[1,2-a]pyrimidin-4-one] | – | 0.16 mg/kg | > 50% | > 50% |
| O=c1c(CCN2CCc3oc4ccccc4c3C2)c(Cc2ccccc2)nc2ccccn12 [Compound 29] | – | 10.00 mg/kg | – | – |
| Cc1cc2nc(C)c(CCN3CCc4oc5ccccc5c4C3)c(=O)n2o1 [Compound 4] | 1.25 mg/kg | – | – | – |
| Cc1cc(C)n2c(=O)c(CCN3CCc4oc5ccccc5c4C3)c(C)nc2c1 [Compound 37] | – | 10.00 mg/kg | – | – |
| O=c1c(CCN2CCc3oc4ccccc4c3C2)c(Cc2ccccc2)nc2ccccn12 [Compound 14] | – | – | > 50% | – |
| c1ccc2sc(NCCN3CCc4oc5ccccc5c4C3)nc2c1 [Compound 51, N-2-benzothiazole-3,4-dihydrobenzofuro[3,2-c]pyridin-2(1H)-ethanamine (E)-2-butenedioate (1:1)] | – | 10.00 mg/kg | – | – |

| SMILES | LAD in mg/kg (lowest active dose for xylazine antagonism) (α2 -adrenoceptor; p.o.) | LAD in mg/kg (lowest active dose for xylazine antagonism) (α2 -adrenoceptor; s.c.) | inhibition at up to 0.01 µM [1] | inhibition [2] |
| --- | --- | --- | --- | --- |
| Cc1nc2ccccn2c(=O)c1CCN1CCc2oc3ccccc3c2C1 [Compound 3, 3-[2-[3,4-dihydrobenzofuro[3,2-c]pyridin-2(1H)-yl]ethyl]-2-methyl-4H-pyrido[1,2-a]pyrimidin-4-one] | 0.31 mg/kg | 0.08 mg/kg | – | – |
| Cc1nc2n(c(=O)c1CCN1CCc3oc4ccccc4c3C1)CCCS2 [Compound 28] | – | 0.63 mg/kg | – | – |
| Cc1nc2ccccn2c(=O)c1CCN1CCc2oc3ccc(Cl)cc3c2C1 [Compound 24] | 10.00 mg/kg | – | – | – |
| Cc1nc2ccccn2c(=O)c1CCN1CCc2oc3c(Cl)cccc3c2C1 [Compound 23] | – | 2.50 mg/kg | > 50% | – |
| Cc1nc2ccccn2c(=O)c1CCN1CCc2oc3c([N+](=O)[O-])cccc3c2C1 [Compound 22] | 10.00 mg/kg | – | – | – |
| Cn1c(=O)c2c(ncn2CCN2CCc3oc4ccccc4c3C2)n(C)c1=O [Compound 59] | – | 10.00 mg/kg | – | – |
| Cc1nc2ccccn2c(=O)c1CCN1CCc2oc3ccc(F)cc3c2C1 [Compound 17] | 10.00 mg/kg | 10.00 mg/kg | – | > 50% |
| Cc1nc2sccn2c(=O)c1CCN1CCc2oc3ccccc3c2C1 [Compound 1, 6-[[3,4-dihydrobenzofuro[3,2-c]pyridin-2(1H)-yl]ethyl]-7-methyl-5H-thiazolo-[3,2-a]pyrimidin-5-one] | – | 0.63 mg/kg | – | – |
| Cc1ccc(C(=O)N2CCC(CN3CCc4oc5ccccc5c4C3)CC2)cc1 [Compound 58, 4-[(3,4-dihydrobenzofuro[3,2-c]pyridin-2(1H)-yl)methyl]-1-(4-methylbenzoyl)piperidine] | 2.50 mg/kg | – | > 50% | – |
| Cc1nc2sccn2c(=O)c1CCN1CCc2oc3ccc(F)cc3c2C1 [Compound 16] | 10.00 mg/kg | – | – | – |
| Cc1nc2n(C)c(C)cn2c(=O)c1CCN1CCc2oc3ccccc3c2C1 [Compound 8] | – | – | > 50% | – |
| Cc1nc2sccn2c(=O)c1CCCN1CCc2oc3ccccc3c2C1 [Compound 27] | – | 10.00 mg/kg | – | – |
| Cc1nc2cccc(C)n2c(=O)c1CCN1CCc2oc3ccccc3c2C1 [Compound 39] | – | 0.63 mg/kg | – | – |
| COc1cccn2c(=O)c(CCN3CCc4oc5ccccc5c4C3)c(C)nc12 [Compound 65, 3-[2-[3,4-dihydrobenzofuro[3,2-c]-pyridin-2(1H)-yl]ethyl]-9-methoxy-2-methyl-4H-pyrido[1,2-a]pyrimidin-4-one] | – | 0.63 mg/kg | > 50% | > 50% |
| c1ccc2sc(NCCCN3CCc4oc5ccccc5c4C3)nc2c1 [Compound 49] | – | 10.00 mg/kg | – | > 50% |
| Cc1ccc2oc3c(c2c1)CN(CCc1c(C)nc2sccn2c1=O)CC3 [Compound 19] | – | 10.00 mg/kg | – | – |
| Cc1nc2c(O)cccn2c(=O)c1CCN1CCc2oc3ccccc3c2C1 [Compound 35] | – | 10.00 mg/kg | – | – |
| c1ccc2sc(NCCCCCN3CCc4oc5ccccc5c4C3)nc2c1 [Compound 48] | – | 10.00 mg/kg | > 50% | > 50% |
| Cc1nc2c(Cl)cc(Cl)cn2c(=O)c1CCN1CCc2oc3ccccc3c2C1 [Compound 40] | 10.00 mg/kg | – | – | – |

Source: US6156757A, “1,2,3,4-tetrahydro-benzofuro[3,2-C]pyridine derivatives” (Janssen Pharmaceutica N.V., priority 1997, dated 2000)
